According to the kinase profiling compilation of Christmann-Franck et al. (2016):

How the values were obtained:
Test in all cases: radiometric filter-binding kinase assay, Kinase HotSpot
Conditions in all cases: compound 0.5 µM; ATP 10 µM
ACVR1B (human) = ACVR1B (human) (UniProt P36896)
ADRBK2 (human) = ADRBK2 (human) (UniProt P35626)
AKT3 (human) = AKT3 (human) (UniProt Q9Y243)
BTK (human) = BTK (human) (UniProt Q06187)
CAMK2G (human) = CAMK2G (human) (UniProt Q13555)
CAMKK1 (human) = CAMKK1 (human) (UniProt Q8N5S9)
CDC42BPA (human) = CDC42BPA (human) (UniProt Q5VT25)
CDK1 CCNB1 (human) = CDK1 CCNB1 (human) (UniProt P06493+P14635)
Chain of CDK1 CCNB1 (human) (P06493 whole entry, looked up): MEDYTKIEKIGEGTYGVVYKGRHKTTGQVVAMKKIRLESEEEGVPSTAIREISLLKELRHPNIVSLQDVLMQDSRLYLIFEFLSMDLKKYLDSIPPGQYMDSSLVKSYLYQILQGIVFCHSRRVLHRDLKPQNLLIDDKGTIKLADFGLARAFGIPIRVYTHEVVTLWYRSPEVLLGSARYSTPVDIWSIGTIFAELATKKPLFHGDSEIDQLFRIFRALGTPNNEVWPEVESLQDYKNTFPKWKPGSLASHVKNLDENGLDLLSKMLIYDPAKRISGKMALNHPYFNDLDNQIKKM
Chain of CDK1 CCNB1 (human) (P14635 whole entry, looked up): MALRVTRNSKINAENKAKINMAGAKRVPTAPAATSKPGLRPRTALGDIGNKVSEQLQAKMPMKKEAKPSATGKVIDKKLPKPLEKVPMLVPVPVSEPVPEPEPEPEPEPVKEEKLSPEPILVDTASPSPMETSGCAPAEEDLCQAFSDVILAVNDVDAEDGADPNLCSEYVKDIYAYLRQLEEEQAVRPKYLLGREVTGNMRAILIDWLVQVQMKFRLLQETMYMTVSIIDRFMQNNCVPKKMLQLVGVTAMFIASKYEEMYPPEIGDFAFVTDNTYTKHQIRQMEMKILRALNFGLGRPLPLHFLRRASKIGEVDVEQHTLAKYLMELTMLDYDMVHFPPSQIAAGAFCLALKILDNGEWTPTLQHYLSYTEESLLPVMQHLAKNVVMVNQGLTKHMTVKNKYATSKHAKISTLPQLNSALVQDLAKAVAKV

CHEK2 (human) = CHEK2 (human) (UniProt O96017)
Chain of CHEK2 (human) (O96017 whole entry, looked up): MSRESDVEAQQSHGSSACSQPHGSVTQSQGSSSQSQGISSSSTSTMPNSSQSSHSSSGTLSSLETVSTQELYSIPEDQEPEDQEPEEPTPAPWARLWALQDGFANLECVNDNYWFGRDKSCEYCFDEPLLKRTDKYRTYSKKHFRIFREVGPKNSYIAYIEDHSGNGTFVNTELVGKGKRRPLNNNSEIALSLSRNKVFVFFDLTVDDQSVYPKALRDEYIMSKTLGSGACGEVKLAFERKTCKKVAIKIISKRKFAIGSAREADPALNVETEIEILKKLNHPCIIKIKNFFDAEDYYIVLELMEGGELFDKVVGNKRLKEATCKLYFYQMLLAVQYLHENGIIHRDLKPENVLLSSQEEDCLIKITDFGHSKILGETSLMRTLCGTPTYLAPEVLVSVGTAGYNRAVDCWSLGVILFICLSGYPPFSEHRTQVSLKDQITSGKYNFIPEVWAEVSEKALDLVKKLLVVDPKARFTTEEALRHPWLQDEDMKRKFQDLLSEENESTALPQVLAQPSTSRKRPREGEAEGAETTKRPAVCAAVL

CSNK1G1 (human) = CSNK1G1 (human) (UniProt Q9HCP0)
DAPK3 (human) = DAPK3 (human) (UniProt O43293)
DSTYK (human) = DSTYK (human) (UniProt Q6XUX3)
DYRK1B (human) = DYRK1B (human) (UniProt Q9Y463)
Chain of DYRK1B (human) (Q9Y463 whole entry, looked up): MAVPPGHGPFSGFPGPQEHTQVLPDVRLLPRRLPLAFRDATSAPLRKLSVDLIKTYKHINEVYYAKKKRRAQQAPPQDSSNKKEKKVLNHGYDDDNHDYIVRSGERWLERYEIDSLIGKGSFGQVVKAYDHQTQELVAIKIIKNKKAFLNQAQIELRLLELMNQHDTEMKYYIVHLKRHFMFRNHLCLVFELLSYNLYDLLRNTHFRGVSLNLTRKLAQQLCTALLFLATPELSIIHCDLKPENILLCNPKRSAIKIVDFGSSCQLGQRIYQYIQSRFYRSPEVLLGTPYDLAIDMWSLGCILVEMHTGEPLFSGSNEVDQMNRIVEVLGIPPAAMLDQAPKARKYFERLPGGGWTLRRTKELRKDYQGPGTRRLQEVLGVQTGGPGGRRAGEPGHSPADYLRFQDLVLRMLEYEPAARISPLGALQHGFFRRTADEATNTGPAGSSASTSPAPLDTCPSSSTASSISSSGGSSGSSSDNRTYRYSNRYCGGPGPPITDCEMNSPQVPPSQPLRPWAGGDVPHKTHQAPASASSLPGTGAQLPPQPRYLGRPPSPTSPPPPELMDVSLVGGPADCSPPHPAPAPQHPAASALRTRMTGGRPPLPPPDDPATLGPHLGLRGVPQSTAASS

EPHA2 (human) = EPHA2 (human) (UniProt P29317)
EPHA5 (human) = EPHA5 (human) (UniProt P54756)
FGFR3 (human) = FGFR3 (human) (UniProt P22607)
HIPK3 (human) = HIPK3 (human) (UniProt Q9H422)
ITK (human) = ITK (human) (UniProt Q08881)
MAP3K14 (human) = MAP3K14 (human) (UniProt Q99558)
MAP3K2 (human) = MAP3K2 (human) (UniProt Q9Y2U5)
MAP3K5 (human) = MAP3K5 (human) (UniProt Q99683)
MAP3K7 TAB1 (human) = MAP3K7 TAB1 (human) (UniProt O43318+Q15750)
MAP4K4 (human) = MAP4K4 (human) (UniProt O95819)
MAPK10 (human) = MAPK10 (human) (UniProt P53779)
MAPK11 (human) = MAPK11 (human) (UniProt Q15759)
Chain of MAPK11 (human) (Q15759 whole entry, looked up): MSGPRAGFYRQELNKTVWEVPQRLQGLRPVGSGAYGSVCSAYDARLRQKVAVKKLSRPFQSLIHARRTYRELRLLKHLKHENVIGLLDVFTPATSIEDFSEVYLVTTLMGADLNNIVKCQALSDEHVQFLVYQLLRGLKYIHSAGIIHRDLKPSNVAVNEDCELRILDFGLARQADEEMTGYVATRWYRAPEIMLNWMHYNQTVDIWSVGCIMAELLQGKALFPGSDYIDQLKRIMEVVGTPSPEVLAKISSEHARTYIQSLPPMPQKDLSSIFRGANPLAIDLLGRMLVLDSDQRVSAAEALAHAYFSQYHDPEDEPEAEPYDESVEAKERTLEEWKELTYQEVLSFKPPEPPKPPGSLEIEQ

MET (human) = MET (human) (UniProt P08581)
NTRK1 (human) = NTRK1 (human) (UniProt P04629)
PAK3 (human) = PAK3 (human) (UniProt O75914)
Chain of PAK3 (human) (O75914 whole entry, looked up): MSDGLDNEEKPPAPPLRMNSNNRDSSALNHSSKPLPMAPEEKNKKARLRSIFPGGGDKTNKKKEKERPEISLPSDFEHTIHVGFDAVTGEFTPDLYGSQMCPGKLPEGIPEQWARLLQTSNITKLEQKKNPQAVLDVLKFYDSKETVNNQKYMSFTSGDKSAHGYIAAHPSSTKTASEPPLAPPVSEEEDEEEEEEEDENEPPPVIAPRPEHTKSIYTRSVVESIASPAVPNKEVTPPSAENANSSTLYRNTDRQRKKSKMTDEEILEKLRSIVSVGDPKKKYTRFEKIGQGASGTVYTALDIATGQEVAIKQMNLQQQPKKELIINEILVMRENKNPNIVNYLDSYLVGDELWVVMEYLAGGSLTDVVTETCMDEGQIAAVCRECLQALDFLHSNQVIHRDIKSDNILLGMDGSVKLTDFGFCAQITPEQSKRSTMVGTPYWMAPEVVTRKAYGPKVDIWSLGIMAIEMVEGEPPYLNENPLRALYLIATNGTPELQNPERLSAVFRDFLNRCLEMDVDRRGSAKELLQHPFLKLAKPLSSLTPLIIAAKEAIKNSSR

PIM1 (human) = PIM1 (human) (UniProt P11309)
PIM2 (human) = PIM2 (human) (UniProt Q9P1W9)
Chain of PIM2 (human) (Q9P1W9 whole entry, looked up): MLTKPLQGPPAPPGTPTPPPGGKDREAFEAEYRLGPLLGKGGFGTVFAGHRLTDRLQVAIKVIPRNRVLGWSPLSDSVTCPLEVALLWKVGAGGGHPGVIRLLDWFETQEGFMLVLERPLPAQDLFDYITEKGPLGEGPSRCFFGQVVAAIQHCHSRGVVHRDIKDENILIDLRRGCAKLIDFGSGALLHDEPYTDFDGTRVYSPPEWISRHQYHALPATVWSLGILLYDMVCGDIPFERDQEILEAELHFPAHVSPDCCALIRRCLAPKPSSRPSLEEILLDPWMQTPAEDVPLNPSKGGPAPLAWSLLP

PRKCB1 (human) = PRKCB1 (human) (UniProt P05771)
PRKCD (human) = PRKCD (human) (UniProt Q05655)
PRKD3 (human) = PRKD3 (human) (UniProt O94806)
PTK2B (human) = PTK2B (human) (UniProt Q14289)
RPS6KA3 KD1 KD2 (human) = RPS6KA3 KD1 KD2 (human) (UniProt P51812)
Chain of RPS6KA3 KD1 KD2 (human) (P51812 whole entry, looked up): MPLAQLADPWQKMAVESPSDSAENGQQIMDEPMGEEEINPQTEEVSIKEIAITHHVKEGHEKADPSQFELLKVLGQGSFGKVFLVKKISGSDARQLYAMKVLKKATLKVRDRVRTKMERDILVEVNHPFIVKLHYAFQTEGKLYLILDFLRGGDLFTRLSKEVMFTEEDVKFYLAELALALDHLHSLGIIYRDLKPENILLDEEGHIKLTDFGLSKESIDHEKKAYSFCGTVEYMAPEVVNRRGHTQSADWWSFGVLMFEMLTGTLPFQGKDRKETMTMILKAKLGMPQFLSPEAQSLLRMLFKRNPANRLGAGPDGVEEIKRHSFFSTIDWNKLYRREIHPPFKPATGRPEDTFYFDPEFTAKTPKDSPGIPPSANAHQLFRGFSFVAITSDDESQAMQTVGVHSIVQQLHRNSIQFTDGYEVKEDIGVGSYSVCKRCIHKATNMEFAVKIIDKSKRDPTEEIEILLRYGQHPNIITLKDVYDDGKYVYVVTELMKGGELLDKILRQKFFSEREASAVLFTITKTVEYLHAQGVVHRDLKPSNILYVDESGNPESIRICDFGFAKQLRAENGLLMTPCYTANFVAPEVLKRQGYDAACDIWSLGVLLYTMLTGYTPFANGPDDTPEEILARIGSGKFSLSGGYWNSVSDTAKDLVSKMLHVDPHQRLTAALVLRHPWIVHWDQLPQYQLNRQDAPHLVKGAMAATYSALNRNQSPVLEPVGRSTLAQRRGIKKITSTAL

RPS6KA4 KD2 (human) = RPS6KA4 KD2 (human) (UniProt O75676)
RPS6KB1 (human) = RPS6KB1 (human) (UniProt P23443)
STK25 (human) = STK25 (human) (UniProt O00506)
TNK2 (human) = TNK2 (human) (UniProt Q07912)
TXK (human) = TXK (human) (UniProt P42681)
VRK1 (human) = VRK1 (human) (UniProt Q99986)
Chain of VRK1 (human) (Q99986 whole entry, looked up): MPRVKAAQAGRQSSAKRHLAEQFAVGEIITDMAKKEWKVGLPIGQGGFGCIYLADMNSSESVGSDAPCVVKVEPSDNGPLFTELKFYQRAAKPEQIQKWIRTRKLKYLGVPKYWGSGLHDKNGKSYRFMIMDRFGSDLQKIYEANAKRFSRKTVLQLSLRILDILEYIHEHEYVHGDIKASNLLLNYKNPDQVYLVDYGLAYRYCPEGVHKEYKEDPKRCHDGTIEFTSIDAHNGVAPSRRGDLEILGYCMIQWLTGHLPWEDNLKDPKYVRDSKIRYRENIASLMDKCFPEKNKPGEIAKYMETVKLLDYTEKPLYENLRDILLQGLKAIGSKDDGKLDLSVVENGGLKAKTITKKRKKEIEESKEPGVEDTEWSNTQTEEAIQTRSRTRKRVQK

YES1 (human) = YES1 (human) (UniProt P07947)

Chain of BTK (human) (Q06187 whole entry, looked up): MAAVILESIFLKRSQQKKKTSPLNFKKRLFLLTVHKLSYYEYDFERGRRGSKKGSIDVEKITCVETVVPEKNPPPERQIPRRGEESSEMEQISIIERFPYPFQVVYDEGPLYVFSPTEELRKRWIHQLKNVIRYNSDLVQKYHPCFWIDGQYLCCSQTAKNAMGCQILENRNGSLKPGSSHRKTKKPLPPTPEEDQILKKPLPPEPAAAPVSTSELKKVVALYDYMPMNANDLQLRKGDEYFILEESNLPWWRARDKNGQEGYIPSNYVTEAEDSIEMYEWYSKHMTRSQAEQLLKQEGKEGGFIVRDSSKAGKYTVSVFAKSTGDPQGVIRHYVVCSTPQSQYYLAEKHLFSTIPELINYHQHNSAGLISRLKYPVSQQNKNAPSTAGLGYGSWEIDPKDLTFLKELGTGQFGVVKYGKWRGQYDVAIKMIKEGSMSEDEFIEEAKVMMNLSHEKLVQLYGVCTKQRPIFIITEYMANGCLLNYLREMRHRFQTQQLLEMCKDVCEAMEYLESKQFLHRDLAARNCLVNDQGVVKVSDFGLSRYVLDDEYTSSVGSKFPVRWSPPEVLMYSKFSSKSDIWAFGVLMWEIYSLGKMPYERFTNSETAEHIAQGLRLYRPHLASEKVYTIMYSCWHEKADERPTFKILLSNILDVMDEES

Compound: CC(C)n1cnc2c(Nc3cccc(Cl)c3)nc(NCCO)nc21
- residual activity (ACVR1B (human)): 101%
- residual activity (ADRBK2 (human)): 90.5%
- residual activity (AKT3 (human)): 99.9%
- residual activity (BTK (human)): 86.3%
- residual activity (CAMK2G (human)): 106%
- residual activity (CAMKK1 (human)): 88.2%
- residual activity (CDC42BPA (human)): 83.9%
- residual activity (CDK1 CCNB1 (human)): 46.6%
- residual activity (CHEK2 (human)): 78.5%
- residual activity (CSNK1G1 (human)): 16%
- residual activity (DAPK3 (human)): 102%
- residual activity (DSTYK (human)): 97%
- residual activity (DYRK1B (human)): 78.8%
- residual activity (EPHA2 (human)): 93.3%
- residual activity (EPHA5 (human)): 91.7%
- residual activity (FGFR3 (human)): 95.1%
- residual activity (HIPK3 (human)): 99.9%
- residual activity (ITK (human)): 96%
- residual activity (MAP3K14 (human)): 97.4%
- residual activity (MAP3K2 (human)): 97.6%
- residual activity (MAP3K5 (human)): 114%
- residual activity (MAP3K7 TAB1 (human)): 92.7%
- residual activity (MAP4K4 (human)): 75.5%
- residual activity (MAPK10 (human)): 101%
- residual activity (MAPK11 (human)): 92.2%
- residual activity (MET (human)): 83.9%
- residual activity (NTRK1 (human)): 98.2%
- residual activity (PAK3 (human)): 96.7%
- residual activity (PIM1 (human)): 93.9%
- residual activity (PIM2 (human)): 97%
- residual activity (PRKCB1 (human)): 102%
- residual activity (PRKCD (human)): 89.1%
- residual activity (PRKD3 (human)): 88.4%
- residual activity (PTK2B (human)): 85%
- residual activity (RPS6KA3 KD1 KD2 (human)): 60.1%
- residual activity (RPS6KA4 KD2 (human)): 83.8%
- residual activity (RPS6KB1 (human)): 93.3%
- residual activity (STK25 (human)): 92.9%
- residual activity (TNK2 (human)): 70.8%
- residual activity (TXK (human)): 78.1%
- residual activity (VRK1 (human)): 96.3%
- residual activity (YES1 (human)): 33.7%

Compound: O=C1Nc2ccccc2/C1=C\c1c(Cl)[nH]c2ccccc12
- residual activity (ACVR1B (human)): 105%
- residual activity (ADRBK2 (human)): 90.1%
- residual activity (AKT3 (human)): 93.6%
- residual activity (BTK (human)): 94.6%
- residual activity (CAMK2G (human)): 103%
- residual activity (CAMKK1 (human)): 116%
- residual activity (CDC42BPA (human)): 95.7%
- residual activity (CDK1 CCNB1 (human)): 94.3%
- residual activity (CHEK2 (human)): 99.4%
- residual activity (CSNK1G1 (human)): 99.3%
- residual activity (DAPK3 (human)): 91.2%
- residual activity (DSTYK (human)): 95.7%
- residual activity (DYRK1B (human)): 99.3%
- residual activity (EPHA2 (human)): 97.3%
- residual activity (EPHA5 (human)): 83.4%
- residual activity (FGFR3 (human)): 101%
- residual activity (HIPK3 (human)): 100%
- residual activity (ITK (human)): 104%
- residual activity (MAP3K14 (human)): 92.6%
- residual activity (MAP3K2 (human)): 94%
- residual activity (MAP3K5 (human)): 107%
- residual activity (MAP3K7 TAB1 (human)): 99.2%
- residual activity (MAP4K4 (human)): 75.7%
- residual activity (MAPK10 (human)): 103%
- residual activity (MAPK11 (human)): 94.5%
- residual activity (MET (human)): 109%
- residual activity (NTRK1 (human)): 90.7%
- residual activity (PAK3 (human)): 98.8%
- residual activity (PIM1 (human)): 88.5%
- residual activity (PIM2 (human)): 106%
- residual activity (PRKCB1 (human)): 105%
- residual activity (PRKCD (human)): 88.4%
- residual activity (PRKD3 (human)): 87.7%
- residual activity (PTK2B (human)): 95.5%
- residual activity (RPS6KA3 KD1 KD2 (human)): 82.9%
- residual activity (RPS6KA4 KD2 (human)): 93.6%
- residual activity (RPS6KB1 (human)): 99.7%
- residual activity (STK25 (human)): 97.7%
- residual activity (TNK2 (human)): 98.4%
- residual activity (TXK (human)): 99.6%
- residual activity (VRK1 (human)): 104%
- residual activity (YES1 (human)): 93.9%

Compound: Cc1cc2ncc(-c3ccccc3)nc2cc1C
- residual activity (ACVR1B (human)): 97.7%
- residual activity (ADRBK2 (human)): 87.4%
- residual activity (AKT3 (human)): 91.8%
- residual activity (BTK (human)): 94.8%
- residual activity (CAMK2G (human)): 105%
- residual activity (CAMKK1 (human)): 98%
- residual activity (CDC42BPA (human)): 81.2%
- residual activity (CDK1 CCNB1 (human)): 108%
- residual activity (CHEK2 (human)): 96.8%
- residual activity (CSNK1G1 (human)): 85.7%
- residual activity (DAPK3 (human)): 90.3%
- residual activity (DSTYK (human)): 95.5%
- residual activity (DYRK1B (human)): 106%
- residual activity (EPHA2 (human)): 103%
- residual activity (EPHA5 (human)): 96.1%
- residual activity (FGFR3 (human)): 98%
- residual activity (HIPK3 (human)): 94.4%
- residual activity (ITK (human)): 100%
- residual activity (MAP3K14 (human)): 112%
- residual activity (MAP3K2 (human)): 105%
- residual activity (MAP3K5 (human)): 107%
- residual activity (MAP3K7 TAB1 (human)): 89.9%
- residual activity (MAP4K4 (human)): 85%
- residual activity (MAPK10 (human)): 103%
- residual activity (MAPK11 (human)): 96.8%
- residual activity (MET (human)): 95.1%
- residual activity (NTRK1 (human)): 105%
- residual activity (PAK3 (human)): 96.2%
- residual activity (PIM1 (human)): 101%
- residual activity (PIM2 (human)): 81%
- residual activity (PRKCB1 (human)): 103%
- residual activity (PRKCD (human)): 92.3%
- residual activity (PRKD3 (human)): 92.2%
- residual activity (PTK2B (human)): 92.1%
- residual activity (RPS6KA3 KD1 KD2 (human)): 94.2%
- residual activity (RPS6KA4 KD2 (human)): 99.4%
- residual activity (RPS6KB1 (human)): 88.2%
- residual activity (STK25 (human)): 92.5%
- residual activity (TNK2 (human)): 98.4%
- residual activity (TXK (human)): 99.5%
- residual activity (VRK1 (human)): 101%
- residual activity (YES1 (human)): 102%
